Results published in patent publication US6670132B2, “Determining non-nucleic acid molecule binding to target by competition with nucleic acid ligand” (Gilead Sciences, Inc., priority 1999, dated 2003).
[NH2-N] = 2'-amino-2'-deoxy sugar (2'-aminopyrimidine nucleotide) (N: the base)

How the values were obtained:
[1] = molecular target: T1, PDGF-BB (Homo sapiens, UniProt P01127); assay: Binding of PDGF aptamers to PDGF-BB
T1 construct: purchased R&D Systems (Minneapolis, Minn.)
Text: For the PDGF competition assay, a DNA PDGF aptamer sequence identified previously was used. The aptamer and methods used herein are described in detail in Example One. Aptamers obtained in this experiment bind preferentially to the B-chain of PDGF in a manner that inhibits receptor binding and PDGF-BB-induced DNA synthesis in vitro. Using photo-crosslinking experiments, it has been shown that a specific nucleotide in the aptamer interacts with phenylalanine-84 of the PDGF B-chain which is located near the region of PDGF know to be involved in receptor binding (Green, L. S. et al. (1996) Biochemistry 35, 14413-24). […] Thus, the aptamer used for competition binding experiments, 20tb, is a 27-mer that binds to PDGF-BB with a Kd of 0.5 nM.
A panel of oligoanions, mostly in the naphthalene sulfonic acid class, were screened for their ability to displace a ^32P-radiolabeled aptamer (20tb) from PDGF-BB. […] A nitrocellulose filter binding method was used to separate bound from unbound aptamer. Structures of competitors used in this competition assay are shown in FIGS. 1A-C along with the Kdc values calculated form the competition profiles (FIG. 2) according to equations (1)-(3) (Experimental Methods). For all competition experiments, the concentration of the ^32P end-labeled 20tb aptamer and PDGF-BB was 1.16 nM and 1.0 nM, respectively. […]

[2] = tested on: wheat germ agglutinin (WGA); assay: Wheat germ agglutinin aptamer competition assay (displacement of 32P-labeled 11.20, nitrocellulose filter binding); design: species or system Triticum vulgare; conditions: 10 nM 32P end-labeled 11.20, 10 nM WGA, room temperature
Procedure: Small molecule oligosaccharides were screened for their ability to compete with WGA aptamer 11.20 for binding to wheat germ agglutinin protein. The small molecule (or cold 11.20) competitors at varying concentrations were mixed with the 5′-32P end-labeled 11.20 ligand at room temperature. Then WGA was added to the mixture and allowed to equilibrate for 60 minutes at room temperature. The competition mixtures (90 μL volume) all had 32P end-labeled 11.20 at 10 nM, WGA at 10 nM and were in 25 mM Hepes, 137 mM NaCl, 2.7 mM KCl, 1 mM MgCl2, 1 mM CaCl2, 0.067% human serum albumin (HSA), at pH 7.4 (HBSMC). Aptamer bound to WGA was separated from free aptamer by filtration through pre-washed […] nitrocellulose membrane filters. Filters were washed with 5 mL HBSMC at room temperature. The filters were placed in tubes with scintillant and the radioactivity counted to quantitate the fraction of 32P end-labeled 11.20 bound at each competitor concentration.
Competition experiments were analyzed by the following equation to determine the concentration of free protein, [PF], as a function of the total concentration of competitor added, [CT]:
[PF]=[PT]/(1+KdR[RT]/(1+KdR[PF])+KdC[CT]/(1+KdC[PF])) (1)
where KdR is the binding constant of species R to the protein (assuming 1:1 stoichiometry) and KdC is the binding constant of species C, the competitor, to the protein (assuming 1:1 stoichiometry). Equation (1) was solved to self-consistency of [PF] to a precision of 1×10^−15. Using these values of [PF], the concentration of protein-ligand complex [PR] as a function of [CT] was determined by the following equation:
[PR]=KdR[RT][PF](1+KdC[PF]) (2)
Since the experimental data are expressed as %[PR], the calculated concentration of [PR] was normalized by [PR0], the [PR] in the absence of the competitor. [PR0] was obtained by solving equation (1) where [CT]=0. The maximum (M) and minimum (B) %[PR] were allowed to float during the analysis as shown in the following equation:
%[PR]=[PR]/[PR0](M−B)+B (3)
A non-linear least-squares fitting procedure was used as described by Bates and Watts (Bates, D. M. and Watts, D. G. 1988 in Non-Linear Regression Analysis and its Applications, D. M. Bates and D. G. Watts editors, John Wiley & Sons, NY, N.Y.). […]
A group of carbohydrates related to GlcNAc3 were tested for their ability to displace radiolabeled 11.20 from WGA. […] Structures of competitors used in this assay are shown in FIGS. 3A-C along with the Kdc values calculated from the competition profiles (FIGS. 4A-D) according to equations (1)-(3). […]

[3] = tested on: WGA; conditions: cited from earlier work; for concentration required to completely inhibit WGA-mediated agglutination: tested previously (U.S. Pat. No. 5,780,228)
[4] = molecular target: T1, PDGF-BB; assay: PDGF aptamer competition assay (displacement of 32P-labeled 20tb, nitrocellulose filter binding); conditions: competition with 1.16 nM 32P end-labeled 20tb, 1.0 nM PDGF-BB, 37° C.; calculated from competition profiles by equations (1)-(3); read-out: KdC
Procedure: Small molecule oligoanions were screened for their ability to compete with PDGF aptamer 20tb for binding to the PDGF-BB protein. The small molecule (or cold 20tb) competitors at varying concentrations were mixed with the 5′-^32P end-labeled 20tb ligand at room temperature. PDGF was then added to the mixture and allowed to equilibrate for 45 minutes at room temperature followed by 15 minutes at 37° C. The competition mixtures (90 μL volume) all had ^32P end-labeled 20tb at 1.16 nM, PDGF-BB at 1 nM and were in 25 mM Hepes, 137 mM NaCl, 2.7 mM KCl, 1 mM MgCl2, 1 mM CaCl2, 0.067% human serum albumin (HSA), at pH 7.4 (HBSMC). […] The filters were placed in tubes with scintillant and the radioactivity counted to quantitate the fraction of ^32P end-labeled 20tb bound at each competitor concentration.
Competition experiments were analyzed by the following equation to determine the concentration of free protein, [PF], as a function of the total concentration of competitor added, [CT]: […]
where KdR is the binding constant of species R to the protein (assuming 1:1 stoichiometry) and KdC is the binding constant of species C, the competitor, to the protein (assuming 1:1 stoichiometry). […] Using these values of [PF], the concentration of protein-ligand complex [PR] as a function of [CT] was determined by the following equation: […]

T1 sequence (P01127 82-190 limits assumed): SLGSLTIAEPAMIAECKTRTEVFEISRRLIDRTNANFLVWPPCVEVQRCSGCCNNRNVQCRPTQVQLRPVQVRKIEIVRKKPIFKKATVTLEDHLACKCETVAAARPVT

20ta: synthetic 33-mer DNA oligo, PDGF aptamer, 5′CGGGCGCGTTCTTCGTGGTTACTTTTAGTCCCG (DNA, backbone not given here)
Kd ([1]; aptamer binding to PDGF): 0.05 nM

20tb: synthetic 27-mer DNA oligo, truncated PDGF aptamer, 5′GGGCCGTTTCGGGTTACTTTTAGTCCC (DNA, backbone not given here)
Kd ([1]; aptamer binding to PDGF-BB): 0.5 nM

CC(=O)N[C@H]1[C@H](O[C@H]2[C@H](O)[C@@H](NC(C)=O)C(O)O[C@@H]2CO)O[C@H](CO)[C@@H](O)[C@@H]1O (some centres unmarked) [(GlcNAc)2, N,N′-diacetylchitobiose]
ability to displace radiolabeled 11.20 from WGA [2]: best ligands

CC(=O)N[C@H]1[C@H](O[C@H]2[C@H](O)[C@@H](NC(C)=O)C(O)O[C@@H]2CO)O[C@H](CO)[C@@H](O[C@@H]2O[C@H](CO)[C@@H](O)[C@H](O)[C@H]2NC(C)=O)[C@@H]1O (some centres unmarked) [(GlcNAc)3, N,N′,N″-triacetylchitotriose]
ability to displace radiolabeled 11.20 from WGA [2]: best ligands | concentration required to completely inhibit WGA-mediated agglutination [3]: 18.5 µM

CC(=O)N[C@H]1[C@H](O[C@H]2[C@H](O)[C@@H](NC(C)=O)C(O)O[C@@H]2CO)O[C@H](CO)[C@@H](O[C@@H]2O[C@H](CO)[C@@H](O[C@@H]3O[C@H](CO)[C@@H](O)[C@H](O)[C@H]3NC(C)=O)[C@H](O)[C@H]2NC(C)=O)[C@@H]1O (some centres unmarked) [(GlcNAc)4, N,N′,N″,N′″-tetraacetyltetraose]
ability to displace radiolabeled 11.20 from WGA [2]: best ligands

CC(=O)N[C@H]1C(O)O[C@H](CO)[C@@H](O)[C@@H]1O (stereo partly drawn) [GlcNAc, N-acetyl-D-glucosamine]
ability to displace radiolabeled 11.20 from WGA [2]: not a competitor | concentration required to completely inhibit WGA-mediated agglutination [3]: 800 µM

O=S(=O)(O)c1ccc(N=Nc2c(S(=O)(=O)O)cc3cc(S(=O)(=O)O)cc(O)c3c2O)cc1 [SPADNS, 2-(4-sulfophenylazo)-1,8-dihydroxy-3,6-naphthalene disulfonic acid]
Kd [4]: 19 µM

O=S(=O)(O)c1ccc2c(S(=O)(=O)O)cc(S(=O)(=O)O)cc2c1 [naphthalene 1,3,6-trisulfonic acid]
Kd [4]: 870 µM

B1: 11.20: 98-mer RNA transcript with 2′aminopyrimidine bases, WGA aptamer (nucleic acid)
chain: GGGAAAAGCGAAUCAUACACAAGAUUGGUCGUACUGGACAGAGCCGUGGUAGAGGGAUUGGGACAAAGUGUCAGCUCCGCCAGAGACCAACCGAGAA
modifications: [NH2-N] at CU, RNA at AG, all phosphodiester, methylation of C not given here
inhibition of WGA-mediated agglutination of sheep erythrocytes ([3]; as described in U.S. Pat. No. 5,780,228): potently inhibited
